Data as given in patent US20230085307A1, “PYRIDAZINONE COMPOUND AND HERBICIDE” (NISSAN CHEMICAL CORPORATION, priority 2019, published 2023).

How the values were obtained:
rapeseed [1] = assay: Test Example 5: effect on crop by foliage application, plastic box (Table 20, symbol g); type: in vivo; details: 320 g/ha, evaluated three weeks after application
Method in brief: (§1)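 Sow seeds spot-wise in sterilized diluvial soil; cover with ~1.5 cm soil. Grow 14 days in greenhouse, 25° C. to 30° C. Spray foliage with emulsion diluted to predetermined amount. Rate effect after 3 weeks.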

beet [2] = assay: Test Example 4: effect on crop by soil treatment (Table 19, symbol f); type: in vivo; details: 320 g/ha
Method in brief: (§2)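 Soil-surface application: an emulsion agent diluted with water to the predetermined dose is sprayed uniformly over seeds lying under roughly 1.5 cm of sterilized diluvial soil. Boxes stay in a greenhouse at 25° C. to 30° C. Three weeks later, each species is graded on previously defined criteria.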

false cleavers [3] = assay: Test Example 4: herbicidal effect by soil treatment (Table 19, symbol Q); type: in vivo, false cleavers (Galium spurium); details: 320 g/ha
Method in brief: as §2

beet [4] = assay: Test Example 5: effect on crop by foliage application, plastic box (Table 20, symbol f); type: in vivo; details: 320 g/ha, evaluated three weeks after application
Method in brief: as §1

false cleavers [5] = assay: Test Example 5: herbicidal effect by foliage application, plastic box (Table 20, symbol Q); type: in vivo, false cleavers (Galium spurium); details: foliage application, 320 g/ha, evaluated three weeks after application
Method in brief: as §1

directly sowed rice = assay: Test Example 3: effect on crop by foliage application, Wagner pot (Table 18, symbol b); type: in vivo; details: 320 g/ha
Method in brief: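 Plants were sown in alluvial soil held under 0.1–0.5 cm standing water and grown 14 days in a greenhouse at 25–30 °C. An emulsifiable formulation, water-diluted to the set dose, was then sprayed onto the foliage, and effects were scored three weeks later using previously defined criteria.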

wheat [6] = assay: Test Example 5: effect on crop by foliage application, plastic box (Table 20, symbol e); type: in vivo; details: 320 g/ha, evaluated three weeks after application
Method in brief: as §1

corn [7] = assay: Test Example 5: effect on crop by foliage application, plastic box (Table 20, symbol c); type: in vivo; details: 320 g/ha, evaluated three weeks after application
Method in brief: as §1

soybean [8] = assay: Test Example 5: effect on crop by foliage application, plastic box (Table 20, symbol d); type: in vivo; details: 320 g/ha, evaluated three weeks after application
Method in brief: as §1

wheat [9] = assay: Test Example 4: effect on crop by soil treatment (Table 19, symbol e); type: in vivo; details: 320 g/ha
Method in brief: as §2

rapeseed [10] = assay: Test Example 4: effect on crop by soil treatment (Table 19, symbol g); type: in vivo; details: 320 g/ha
Method in brief: as §2

corn [11] = assay: Test Example 4: effect on crop by soil treatment (Table 19, symbol c); type: in vivo; details: 320 g/ha
Method in brief: as §2

transplanted rice = assay: Test Example 1: effect on crop, application before weed generation under submerged conditions (Table 16, symbol a); type: in vivo; details: 320 g/ha applied herbicide
Method in brief: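 Emulsion formulation, water-diluted to set dose, was put onto the flooded surface (4 cm depth, alluvial soil) the same day weeds were sown and 2.5-leaf rice transplanted. After 3 weeks at 25-30 °C under glass, each species was rated 0 (≤5% kill) to 5 (≥90% kill).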

soybean [12] = assay: Test Example 4: effect on crop by soil treatment (Table 19, symbol d); type: in vivo; details: 320 g/ha
Method in brief: as §2

## COc1cc(F)ccc1-c1sc2ccc(Cl)cc2c1-c1c(O)c(C)nn(C)c1=O [Compound No. 2-095, 4-(5-chloro-2-(4-fluoro-2-methoxyphenyl)benzo[b]thiophen-3-yl)-5-hydroxy-2,6-dimethylpyridazin-3(2H)-one]
Rapeseed [1]
  effect on crop, g: rapeseed: 5 (Herbicidal rate of 90% or more (almost completely withered))
Beet [2]
  effect rating on crop, f: beet: 4 (Herbicidal rate of 70% or more and less than 90%)
False cleavers [3]
  herbicidal effect rating, Q: false cleavers: 4 (Herbicidal rate of 70% or more and less than 90%)
Beet [4]
  effect on crop, f: beet: 5 (Herbicidal rate of 90% or more (almost completely withered))
False cleavers [5]
  herbicidal effect on Q: false cleavers: 5 (Herbicidal rate of 90% or more (almost completely withered))
Directly sowed rice
  effect on crop b (directly sowed rice), rating 0-5: 1 (Herbicidal rate of 5% or more and less than 20%)
Wheat [6]
  effect on crop, e: wheat: 1 (Herbicidal rate of 5% or more and less than 20%)
Corn [7]
  effect on crop, c: corn: 1 (Herbicidal rate of 5% or more and less than 20%)
Soybean [8]
  effect on crop, d: soybean: 4 (Herbicidal rate of 70% or more and less than 90%)
other
  melting point: 221 to 223 °C
Wheat [9]
  effect rating on crop, e: wheat: 0 (Herbicidal rate of 5% or less (almost no effect))
Rapeseed [10]
  effect rating on crop, g: rapeseed: 1 (Herbicidal rate of 5% or more and less than 20%)
Corn [11]
  effect rating on crop, c: corn: 0 (Herbicidal rate of 5% or less (almost no effect))
Transplanted rice
  Effect on crop a: transplanted rice (grade 0-5): 0 (Herbicidal rate of 5% or less (almost no effect))
Soybean [12]
  effect rating on crop, d: soybean: 0 (Herbicidal rate of 5% or less (almost no effect))
